Results published in patent US20250213707A1, “COMPOUND FOR INCREASING EFFICACY OF ONCOLYTIC VIRUSES” (ABLEVIA BIOTECH GMBH, priority 2022, published 2025).

What was measured:
Type in all cases: binding
[1] = system: mAb E10B10; experiment: Fine epitope mapping of mAb E10B10 with 1068 circular peptides from SRCR-1 to -3 of mouse CD163; details: circular peptides of 7, 10 and 13 amino acids from mouse CD163
Excerpt: The epitope of this antibody was fine mapped using circular peptide arrays, whereby the peptides were derived from mouse CD163.

[2] = system: IgG from human donors (anti-AAV antibodies); experiment: Screen for anti-AAV antibodies in human sera, 2452 linear 15-amino-acid AAV peptides on microarrays (Table 1); parameters: key to group I: X: the deduplicated aggregate of the respective top 10 peptide hits for each donor was compiled and designated as group I; key to group II: X: the deduplicated aggregate of the respective top 25 peptide hits for each donor was compiled and designated as group II; key to group III: X: the deduplicated aggregate of the respective top 50 peptide hits for each donor was compiled and designated as group III; details: human donor IgG binding to linear 15-amino-acid AAV peptides on microarray, fluorescence; for group I: membership in deduplicated aggregate of top 10 peptide hits for each donor; for group II: membership in deduplicated aggregate of top 25 peptide hits for each donor; for group III: membership in deduplicated aggregate of top 50 peptide hits for each donor
How it was run: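 Peptide hits were grouped I to IV by pooling each donor's top 10, 25, 50 or 250 background-corrected fluorescence signals, after deduplication. Signals came from donor IgG, purified on protein G, bound to arrayed 15-residue linear peptides (2452 total) spanning 16 AAV sequences.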

[3] = system: IgG from human donors (anti-measles virus antibodies); parameters: key: X: The peptides belonging to the Top 10% hits
[4] = system: mAb Mac2-158; experiment: Epitope mapping of mAb Mac2-158 with circular peptides of human CD163 SRCR domain 1; details: circular peptides aligned to SRCR domain 1 of human CD163
Excerpt: As a result, the following sequences (as well as motifs derived therefrom) are highly suitable epitopes anti-CD163 antibodies and fragments thereof used as SADC biopolymer scaffold: […]

Substance | rank by relative signal strength (top binding peptides of mAb E10B10) [1] | group I [2] | group II [2] | group III [2] | top 10% [3] | peptide number among the top 20 peptide hits of mAb Mac2-158 [4]
378 (ASAVTNAPGE) [compound 378] | 11 | – | – | – | – | –
SNSQLIFAGPNPSG [SEQ ID NO: 1908] | – | X | X | X | X | 03
375 (SGSASAVTNAPGE) [compound 375] | 08 | – | – | – | – | –
372 (GSASAVTNAPGEM) [compound 372] | 05 | – | – | – | – | –
370 (VTNAPGEMKK) [compound 370] | 03 | – | – | – | – | –
377 (SAVTNAPGEM) [compound 377] | 10 | – | – | – | – | –
380 (TNAPGEMKKE) [compound 380] | 13 | – | – | – | – | –
373 (AVTNAPGEMKKEL) [compound 373] | 06 | – | – | – | – | –
TRPATAPQIGTVNS [SEQ ID NO: 1905] | – | X | X | X | X | –
KIFNIQVKEVTTSN (REGION 1..14: note = peptide derived from viral capsid protein) [SEQ ID NO: 1896] | – | X | X | X | X | 20
369 (ASAVTNAPGEMKK) [compound 369] | 02 | – | – | – | – | –
SESVPDPQPIGEPP (REGION 1..14: note = peptide derived from viral capsid protein) [SEQ ID NO: 1899] | – | X | X | X | X | 09
ANNLTSTVQIFADS (REGION 1..14: note = peptide derived from viral capsid protein) [SEQ ID NO: 1895] | – | X | X | X | X | –
379 (SAVTNAPGEMKKE) [compound 379] | 12 | – | – | – | – | –
KTAPGKKRPVDQSP (REGION 1..14: note = peptide derived from viral capsid protein) [SEQ ID NO: 1920] | – | X | X | X | X | –
DEEEIRTTNPVATE (REGION 1..14: note = peptide derived from viral capsid protein) [SEQ ID NO: 1902] | – | X | X | X | X | 18
374 (SASAVTNAPGEMK) [compound 374] | 07 | – | – | – | – | –
368 (VTNAPGEMKKELR) [compound 368] | 01 | – | – | – | – | –
376 (AVTNAPGEMK) [compound 376] | 09 | – | – | – | – | –
371 (VTNAPGE) [compound 371] | 04 | – | – | – | – | –
NYNKSVNVDFTVDT (REGION 1..14: note = peptide derived from viral capsid protein) [SEQ ID NO: 1903] | – | X | X | X | X | 19
